Measured values published in patent publication US20050101595A1, “N-containing cycloalkyl-substituted amino-thiazole derivatives and pharmaceutical compositions for inhibiting cell proliferation and methods for their use” (PFIZER INC., priority 2003, published 2005).
pIC50, pKi: −log10 of the molar value. Counter-ions that a name gives are not always drawn. Like-named read-outs stand apart in the source and are kept apart here.

Experiments:
[1] = target: human CDK4 and genetically truncated (1-264) cyclin D3 (Homo sapiens, UniProt P11802); assay: Inhibition of CDK4/Cyclin D Retinoblastoma Kinase Activity; assay type: biochemical; details: for pKi: apparent Ki, CDK4/truncated cyclin D3, Rb fragment substrate, 25 μM ATP
Procedure, shortened: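 Apparent Ki values come from competitive or competitive tight-binding inhibition fits of background-corrected 32P/33P incorporation into His-tagged Rb fragment (386-928), captured on nitrocellulose. Reaction: 5 nM insect-cell-expressed human CDK4 with cyclin D3 (1-264), 25 μM ATP, pH 7.4 HEPES, 2% DMSO, 30° C., 20 min, extended to 60 min for tight-binding inhibitors.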

HCT-116 cell line = assay: Inhibition of cell growth, tetrazolium salt (MTT) assay; assay type: cell-based; details: for pIC50: Homo sapiens, HCT-116, 120 h, MTT, three to five days, read-out: HCT-116 IC50; for HCT-116 % Inhibition at 0.25 μM: 0.25 μM compound
Procedure, shortened: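 First, cells were seeded in McCoy's 5A medium and held 4 h. Next, inhibitor concentrations in 0.5% (v/v) DMSO were applied for three to five days at 37° C, 5% CO2. Finally, after 4 h with 0.2 mg/mL MTT and medium removal, solubilized formazan was measured at 540 nm.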

CDK2/Cyclin A = CDK2/Cyclin A (Homo sapiens, UniProt P24941); assay: Inhibition of CDK2/Cyclin A Retinoblastoma Kinase Activity; assay type: biochemical; details: for pKi: apparent Ki, CDK2/proteolyzed cyclin A, Rb fragment substrate, 25 μM ATP
Procedure, shortened: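 Radiometric filter-binding readout of phosphate transfer to an Rb substrate fragment by purified CDK2/truncated cyclin A at 10 or 19 nM. Run at pH 7.4 with 25 μM ATP, 30 °C, 60–75 min, linear rates; background without enzyme subtracted, Ki from competitive-inhibition models.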

Sequence of human CDK4 and genetically truncated (1-264) cyclin D3 (P11802 whole entry, the tested form may be a part): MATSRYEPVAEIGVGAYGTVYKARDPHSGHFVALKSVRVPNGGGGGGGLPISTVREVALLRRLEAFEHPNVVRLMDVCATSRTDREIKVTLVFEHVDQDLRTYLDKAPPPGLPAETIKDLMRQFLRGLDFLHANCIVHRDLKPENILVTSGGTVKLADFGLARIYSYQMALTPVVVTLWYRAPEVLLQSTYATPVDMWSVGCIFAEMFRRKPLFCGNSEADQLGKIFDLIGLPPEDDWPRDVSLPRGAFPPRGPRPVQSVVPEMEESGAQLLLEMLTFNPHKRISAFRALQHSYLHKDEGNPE
Sequence of human CDK4 and genetically truncated (1-264) cyclin D3 (P30281 1-264 partner): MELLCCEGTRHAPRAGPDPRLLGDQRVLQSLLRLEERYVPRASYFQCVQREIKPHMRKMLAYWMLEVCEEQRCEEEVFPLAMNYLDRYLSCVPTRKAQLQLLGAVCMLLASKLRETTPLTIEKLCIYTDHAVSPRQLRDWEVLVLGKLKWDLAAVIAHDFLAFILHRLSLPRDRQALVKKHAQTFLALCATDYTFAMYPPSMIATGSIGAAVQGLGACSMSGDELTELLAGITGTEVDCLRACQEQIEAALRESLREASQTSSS

Row | Compound | CDK4 % Inhibition at 0.03 μM ([1]; at 0.03 μM) [%] | HCT-116 % Inhibition at 0.1 μM (HCT-116 cell line; HCT-116 cells, at 0.1 μM) [%] | HCT-116 5 Inhibition at 0.25 μM (HCT-116 cell line; HCT-116 cells) | CDK2 % Inhibition at 0.03 μM (CDK2/Cyclin A; at 0.03 μM) [%] | pKi [1] | pIC50 (HCT-116 cell line; first HCT-116 column (c4)) | pIC50 (HCT-116 cell line; second HCT-116 column (c5)) | pKi (CDK2/Cyclin A) | other results
1 | CC(C)S(=O)(=O)c1csc(C(=O)N2CCC(Nc3nc(N)c(C(=O)c4c(F)cccc4F)s3)CC2)c1 [Example R63] | 12 | 0 | 38 | 11 | – | – | – | – | –
2 | N#C/C(=C\c1cccc(O)c1)C(=O)N1CCC(Nc2nc(N)c(C(=O)c3c(F)cccc3F)s2)CC1 [Example D13, 12(Z)-(1-{4-[4-Amino-5-(2,6-difluoro-benzoyl)-thiazol-2-ylamino]-piperidin-1-yl}-methanoyl)-3-(3-hydroxy-phenyl)-acrylonitrile Trifluoroacetic Acid Salt] | – | – | – | – | 8.74 | 5.89 | 5.30 | 7.62 | –
3 | Nc1nc(NC2CCN(C(=O)Nc3ccccc3F)CC2)sc1C(=O)c1c(F)cccc1F [Example O5] | – | – | – | – | – | – | – | – | CDK4 % Inhibition at 0.03 μM ([1]; 0.03 μM compound, Table 2): 3%; HCT-116 % Inhibition at 0.25 μM (HCT-116 cell line; HCT-116, Table 2): 31%; CDK2 % Inhibition At 0.03 μM (CDK2/Cyclin A; 0.03 μM compound, Table 2): 35%
4 | Nc1nc(NC2CCN(C(=O)C3CC3)CC2)sc1C(=O)c1c(F)cccc1F [Example R89] | 5 | 0 | 46 | 3 | – | – | – | – | –
5 | Nc1nc(NC2CCN(S(=O)(=O)c3ccc(CCN4CCC(O)C4)nc3)CC2)sc1C(=O)c1c(F)cccc1F (stereo not drawn) [Example N7, [4-Amino-2-(1-{6-[2-(3-hydroxy-pyrrolidin-1-yl)-ethyl]-pyridine-3-sulfonyl}-piperidin-4-ylamino)-thiazol-5-yl]-(2,6-difluoro-phenyl)-methanone Hydrochloride Salt.] | – | – | – | – | 9.46 | 6.05 | 5.40 | 9.03 | –
6 | Nc1nc(NC2CCN(S(=O)(=O)CCCN3CC=CC3)CC2)sc1C(=O)c1c(F)cccc1F [Example K9, 1-(4-Amino-2-{1-[3-(2,5-dihydropyrrol-1-yl)propane-1-sulfonyl]-piperidin-4-ylamino}-thiazol-5-yl)-1-(2,6-difluoro-phenyl)-methanone.] | – | – | – | – | 8.80 | 7.05 | 6.03 | > 8.89 | –
7 | Nc1nc(NC2CCN(C(=O)[C@@H]3C[C@H]3c3ccccc3)CC2)sc1C(=O)c1c(F)cccc1F (relative stereo) [Example R92] | −2 | 0 | 40 | −9 | – | – | – | – | –
8 | Nc1nc(NC2CCN(S(=O)(=O)c3ccc(CN4CCCC4)cc3)CC2)sc1C(=O)c1c(F)cccc1F [Example J6, 1-{4-Amino-2-[1-(4-pyrrolidin-1-ylmethyl-benzenesulfonyl)-piperidin-4-ylamino]-thiazol-5-yl}-1-(2,6-difluoro-phenyl)-methanone Hydrochloride] | – | – | – | – | 9.24 | 6.41 | 5.70 | > 9.00 | –
9 | CN1CCC(Nc2nc(N)c(C(=O)c3c(F)cccc3F)s2)CC1 [Example A4, 1-[4-Amino-2-(1-methyl-piperidin-4-ylamino)-thiazol-5-yl]-1-(2,6-difluoro-phenyl)-methanone] | – | – | – | – | 6.03 | 5.77 | 5.42 | 4.92 | –
10 | Nc1nc(NC2CCN(S(=O)(=O)c3cccc([N+](=O)[O-])c3)CC2)sc1C(=O)c1c(F)cccc1F [Example P11] | – | – | – | – | – | – | – | – | CDK4 % Inhibition at 0.03 μM ([1]; 0.03 μM compound, Table 3): 22%; HCT-116 % Inhibition at 0.1 μM (HCT-116 cell line; 0.1 μM compound, HCT-116, Table 3): 19%; HCT-116 % Inhibition at 0.25 μM (HCT-116 cell line; HCT-116, Table 3): 27%; CDK2 % Inhibition at 0.03 μM (CDK2/Cyclin A; 0.03 μM compound, Table 3): −23%
11 | Nc1nc(NC2CCN(S(=O)(=O)c3ccc(-c4cccnc4)nc3)CC2)sc1C(=O)c1c(F)cccc1F [Example I6, 1-{4-Amino-2-[1-([2,3′]bipyridinyl-5-sulfonyl)-piperidin-4-ylamino]-thiazol-5-yl}-1-(2,6-difluoro-phenyl)-methanone Hydrochloride] | – | – | – | – | 9.43 | 7.43 | 6.96 | 9.49 | –
12 | CN1CCC[C@@H](COc2ccc(S(=O)(=O)N3CCC(Nc4nc(N)c(C(=O)c5c(F)cccc5F)s4)CC3)cn2)C1 (stereo in doubt) [Example H10, 1-(4-Amino-2-{1-[6-(1-methyl-piperidin-3R-ylmethoxy)-pyridine-3-sulfonyl]-piperidin-4-ylamino}-thiazol-5-yl)-1-(2,6-difluoro-phenyl)-methanone] | – | – | – | – | 9.15 | 7.32 | < 6.30 | 8.96 | –
13 | Nc1nc(NC2CCN(C(=O)c3csc(C4COc5ccccc5O4)n3)CC2)sc1C(=O)c1c(F)cccc1F (stereo not drawn) [Example R57] | 36 | 0 | 47 | 23 | – | – | – | – | –
